Measured values: the RepoRT retention time repository (doi:10.1007/s00216-013-6954-6)

Experiment: RP, Waters ACQUITY UPLC HSS T3, 100 × 1 mm, 1.8 µm; A: water + 0.1% formic acid, pH 3; B: acetonitrile + 0.1% formic acid, pH 3; gradient (min/%B) 0/5 1/5 16/95 18/95 20/5
Settings: stereoisomer not certain

SMILES | LC retention time [min]
Nc1ncnc2c1ncn2C1CC(O)C(CO)O1 (stereo not given) | 0.8
Cn1c(=O)c2c(ncn2C)n(C)c1=O [Caffeine] | 3.46
O=C(O)c1c[nH]c2ccccc12 [Indole-3-carboxylic acid (I3CO2H)] | 4.7
NC(N)=NCCCC(N)C(=O)O (stereo not given) [Arginine] | 0.413
CC12CCC(=O)C=C1CCC1C2C(=O)CC2(C)C1CCC2(O)C(=O)CO (stereo not given) [Cortisone] | 6.61
NC(=O)NCCCC(N)C(=O)O (stereo not given) [Citrulline] | 0.457
CCC(C)C(N)C(=O)NC(C(=O)O)C(C)CC (stereo not drawn) [H-Ile-Ile-OH] | 3.1
CSCCC(N)C(=O)O (stereo not given) [Methionine] | 0.643
CC(C)CC(N)C(=O)N1CCCC1C(=O)O (stereo not drawn) [H-Leu-Pro-OH] | 2.6
CC(C)CC(N)C(=O)NC(Cc1ccc(O)cc1)C(=O)O (stereo not drawn) [H-Leu-Tyr-OH] | 2.8
Cn1cnc(C[C@H](N)C(=O)O)c1 [1-Methyl-L-Histidine] | 0.407
COC1C(O)C(CO)OC1n1cnc2c(N)ncnc21 (stereo not given) | 1.1
NC(Cc1ccccc1)C(=O)NCC(=O)O (stereo not drawn) [H-Phe-Gly-OH] | 1.7
O=c1ccc2cc(OC3OC(CO)C(O)C(O)C3O)c(O)cc2o1 (stereo not given) [Esculin] | 2.9
O=c1[nH]c(=O)c2[nH]c(=O)[nH]c2[nH]1 [Uric acid] | 0.643
O=C(O)C1CCCN1 (stereo not given) [Proline] | 0.482
CS(=O)CCCCCCCCN=C=S (stereo not drawn) [8-MeSO-Octyl-NCS] | 8.1
CC(C)CC(N)C(=O)NC(CC(C)C)C(=O)O (stereo not drawn) [H-Leu-Leu-OH] | 3.6
NCC(=O)NC(Cc1ccccc1)C(=O)O (stereo not drawn) [H-Gly-Phe-OH] | 2.3
COc1cc(C=CCO)cc(OC)c1OC1OC(CO)C(O)C(O)C1O (stereo not given) [Syringin] | 3.2
Nc1nc2c(ncn2C2OC(CO)C(O)C2O)c(=O)[nH]1 (stereo not given) [Guanosine] | 1.1
COc1cc2ccc(=O)oc2cc1OC1OC(CO)C(O)C(O)C1O (stereo not given) [Scopolin] | 3.3
CCC(C)C(NC(=O)C(N)Cc1ccccc1)C(=O)O (stereo not drawn) [H-Phe-Ile-OH] | 3.8

Experiment: RP, Waters ACQUITY UPLC HSS T3, 150 × 2.1 mm, 1.8 µm; A: water + 0.1% formic acid; B: acetonitrile + 0.1% formic acid; gradient (min/%B) 0/5 1/5 16/95 18/95
Settings: stereoisomer not certain

SMILES | LC retention time [min]
Nc1ncnc2c1ncn2C1CC(O)C(CO)O1 (stereo not given) | 0.8
COC1C(O)C(CO)OC1n1cnc2c(N)ncnc21 (stereo not given) | 1.1
